Here are results for three compounds from patent US4639509A, “[16,19-Di-alanine] calcitonin” (Armour Pharmaceutical Company, priority 1985, dated 1987).

Bridge positions count the residues as written; N and C are the ends. Peptide text beside a SMILES is read from it.

For assay [1], the system named is serum calcium concentration.
Experimental: Rats were divided into four groups of seven animals, and each group was assigned at random to a dose of standard or test solution. Low and high doses were chosen from the linear portion of the dose-responsive curve. For the salmon calcitonin standard, the values were 0.7 and 2.1 mcg. peptide/100 g. body weight (BW). This dose approximates 3 and 9 MU/100 g. BW. Peptides were given by subcutaneous injection (0.2 ml/100 g. BW) and blood was withdrawn 1 hour later for serum calcium determination. Sera are processed and analyzed within two hours of collection. Results were analyzed within two hours of collection.
The conditions of assay [2]: literature values; cited from earlier work.

As to `CC(C)C[C@H](NC(=O)[C@H](CCCCN)NC(=O)CNC(=O)[C@H](CC(C)C)NC(=O)[C@@H](NC(=O)[C@@H]1CSSC[C@H](N)C(=O)N[C@@H](CO)C(=O)N[C@@H](CC(N)=O)C(=O)N[C@@H](CC(C)C)C(=O)N[C@@H](CO)C(=O)N[C@@H]([C@@H](C)O)C(=O)N1)C(C)C)C(=O)N[C@@H](CO)C(=O)N[C@@H](CCC(N)=O)C(=O)N[C@@H](CCC(=O)O)C(=O)N[C@@H](CC(C)C)C(=O)N[C@@H](Cc1c[nH]cn1)C(=O)N[C@@H](CCCCN)C(=O)N[C@@H](CC(C)C)C(=O)N[C@@H](CCC(N)=O)C(=O)N[C@H](C(=O)N[C@@H](Cc1ccc(O)cc1)C(=O)N1CCC[C@H]1C(=O)N[C@@H](CCCNC(=N)N)C(=O)N[C@H](C(=O)N[C@@H](CC(N)=O)C(=O)N[C@H](C(=O)NCC(=O)N[C@@H](CO)C(=O)NCC(=O)N[C@H](C(=O)N1CCC[C@H]1C(N)=O)[C@@H](C)O)[C@@H](C)O)[C@@H](C)O)[C@@H](C)O` [standard salmon calcitonin, Salmon calcitonin], the “potency content of the standard” value in assay [1] (standard used in the assay, independently determined) is reported as “greater than 4,000 IU/mg”.

In the case of `CC(C)C[C@H](NC(=O)[C@H](CCCCN)NC(=O)CNC(=O)[C@H](CC(C)C)NC(=O)[C@@H](NC(=O)[C@@H]1CSSC[C@H](N)C(=O)N[C@@H](CO)C(=O)N[C@@H](CC(N)=O)C(=O)N[C@@H](CC(C)C)C(=O)N[C@@H](CO)C(=O)N[C@@H]([C@@H](C)O)C(=O)N1)C(C)C)C(=O)N[C@@H](CO)C(=O)N[C@@H](CCC(N)=O)C(=O)N[C@@H](CCC(=O)O)C(=O)N[C@@H](C)C(=O)N[C@@H](Cc1c[nH]cn1)C(=O)N[C@@H](CCCCN)C(=O)N[C@@H](C)C(=O)N[C@@H](CCC(N)=O)C(=O)N[C@H](C(=O)N[C@@H](Cc1ccc(O)cc1)C(=O)N1CCC[C@H]1C(=O)N[C@@H](CCCNC(=N)N)C(=O)N[C@H](C(=O)N[C@@H](CC(N)=O)C(=O)N[C@H](C(=O)NCC(=O)N[C@@H](CO)C(=O)NCC(=O)N[C@H](C(=O)N1CCC[C@H]1C(N)=O)[C@@H](C)O)[C@@H](C)O)[C@@H](C)O)[C@@H](C)O` [[Di-Ala^16,19]SCT, [16,19-Di-Alanine]salmon calcitonin] (H-CSNLSTCVLGKLSQEAHKAQTYPRTNTGSGTP-NH2; disulfide 1-7), the biological potency in assay [1] (rat, in vivo, sc) was determined as 7200 IU/mg.

Consider “(1,7-α-L-amino-suberic acid)eel calcitonin”, for which the hypocalcemic potency entry in assay [2] is on record as “about 3400 Iu/mg”.
